Results as given in patent US11685719B2, “Pyridinone MK2 inhibitors and uses thereof” (Xinthera, Inc., priority 2021, dated 2023).
Read-outs that look alike come from different tables or passages of the source.

Experiments:
p38a/PRAK = p38a/PRAK (Homo sapiens (Human), UniProt Q16539); test: biochemical; settings: 10-point 1:3 dilution, top dose 300 μM; 10 μM ATP, 2 h incubation; read-out: p38a/PRAK Enzyme pIC50 (converted)
Method: (§1) Expression vectors of the recombinant MK2 and PRAK kinases were constructed by cloning of the codon optimized gene sequences of MK2 (Uniprot ID P49137, amino acid fragment F46-H400), or PRAK (Uniprot ID Q81W41, amino acid fragment M1-Q471) into pGEX-4T1 (GE) for over expression of these kinases with N-terminal GST-tag. Protein expression was carried out in E. coli BL21 by growing the hosts in TB medium, induction of protein expression with 0.5 mM IPTG at approximate 0.8 OD600, and incubation of the cultures at 18° C. for 14-20 hours afterwards. The harvested cells were resuspended in […] of Lysis buffer (50 mM Tris-HCl, pH 8.0, 500 mM NaCl, 1 mM DTT, 5% glycerol, and 1 mM PMSF) per gram of wet cell mass and homogenized at 4° C. in a microfluidizer (ATS, Suzhou, China) at 14,000 psi pressure, 3 passes. The cell lysates were clarified by centrifugation and the supernatants containing the GST-fusion proteins were purified by affinity chromatography using GSH-Sepharose (GE) gravity flow columns pre-equilibrated in Buffer A (50 mM Tris-HCl, pH 8.0, 500 mM NaCl, 1 mM DTT, and 5% glycerol). After thorough washing of the columns with Buffer A, the bound GST-proteins were eluted by Buffer B (50 mM Tris, pH 8.0, 500 mM NaCl, 1 mM DTT, 5% glycerol, 10 mM glutathione), followed by size-exclusion purification on Superdex 200 column equilibrated in Buffer A. The purified proteins were concentrated to approximately 1 mg/ml and stored at −80° C.
(§2) This study evaluates the inhibitory potency of invention compound on p38/MK2 pathway vs p38/PRAK pathway. More specially the compound concentration (IC50) was determined that inhibited half of the maximal activation of MK2 or PRAK by p38. MK2 activation study was set up without or with a serial of 10-point 1:3 dilution of invention compound at top dose of 1 or 10 μM, and PRAK activation study was set up without or with a serial of 10-point 1:3 dilution of invention compound at top dose of 300 μM. The MIK2 and PRAK activity were determined by the phosphorylation level of HSP27 peptide conjugated with FITC.

p38a/MK2 = p38a/MK2 (Homo sapiens (Human), UniProt P49137+Q16539); test: biochemical; settings: 10-point 1:3 dilution, 10 μM ATP, 2 h incubation
Method: as §1, §2

[1] = top dose 1 μM, read-out: p38a/MK2 (1 μM) Enzyme pIC50 (converted)

Sequence of p38a/MK2 (Q16539 whole entry): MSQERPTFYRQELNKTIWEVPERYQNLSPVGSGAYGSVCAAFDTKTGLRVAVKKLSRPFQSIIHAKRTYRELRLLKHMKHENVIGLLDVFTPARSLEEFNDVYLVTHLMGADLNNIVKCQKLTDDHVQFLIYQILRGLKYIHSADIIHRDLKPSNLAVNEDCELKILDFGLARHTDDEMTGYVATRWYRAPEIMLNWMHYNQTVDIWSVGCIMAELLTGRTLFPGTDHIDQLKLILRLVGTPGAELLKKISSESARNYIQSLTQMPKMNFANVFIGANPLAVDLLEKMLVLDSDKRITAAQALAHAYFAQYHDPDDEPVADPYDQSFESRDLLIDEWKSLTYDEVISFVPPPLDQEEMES
Sequence of p38a/MK2 (P49137 46-400): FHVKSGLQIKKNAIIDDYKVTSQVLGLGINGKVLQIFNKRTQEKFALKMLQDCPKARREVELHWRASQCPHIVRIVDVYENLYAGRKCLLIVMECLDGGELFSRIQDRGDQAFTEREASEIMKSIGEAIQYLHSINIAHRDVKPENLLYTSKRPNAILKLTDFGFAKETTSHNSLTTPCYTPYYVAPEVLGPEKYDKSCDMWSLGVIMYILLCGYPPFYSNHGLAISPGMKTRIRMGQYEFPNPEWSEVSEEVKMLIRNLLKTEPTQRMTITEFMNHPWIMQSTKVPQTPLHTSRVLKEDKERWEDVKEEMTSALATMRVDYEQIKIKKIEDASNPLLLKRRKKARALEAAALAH
Sequence of p38a/PRAK (Q16539 whole entry, the tested form may be a part): as the sequence (Q16539 whole entry) above

SMILES | IC50 (p38a/PRAK) [µM] | IC50 (p38a/MK2; [1]) [µM] | IC50 (p38a/MK2; top dose 10 μM, read-out: p38a/MK2 (10 μM) Enzyme pIC50 (converted)) [µM]
Cc1cnc(-n2ccn(C(C)(C)CO)c2=O)cc1-n1c(C)cc(OCc2ncc(F)cc2F)c(Cl)c1=O (single isomer, unassigned) [Example 27B, rel-3-chloro-4-[(3,5-difluoropyridin-2-yl)methoxy]-2′-[3-(1-hydroxy-2-methylpropan-2-yl)-2-oxoimidazol-1-yl]-5′,6-dimethyl-[1,4′-bipyridin]-2-one] | 0.794 | 0.0126 | 
Cc1cnc(-n2cccc(C(C)C)c2=O)cc1-n1c(C)cc(OCc2ncc(F)cc2F)c(Cl)c1=O (single isomer, unassigned) [Example 17B, rel-3-chloro-4-[(3,5-difluoropyridin-2-yl)methoxy]-2′-(3-isopropyl-2-oxopyridin-1-yl)-5′,6-dimethyl-[1,4′-bipyridin]-2-one] | > 316 | > 1 | 
Cc1cnc(-n2ccnc(C(C)(C)O)c2=O)cc1-n1c(C)cc(OCc2ncc(F)cc2F)c(Cl)c1=O (single isomer, unassigned) [Example 5B, rel-3-chloro-4-[(3,5-difluoropyridin-2-yl)methoxy]-2′-[3-(2-hydroxypropan-2-yl)-2-oxopyrazin-1-yl]-5′,6-dimethyl-[1,4′-bipyridin]-2-one] | > 316 | > 1 | 
Cc1cnc(-n2cccc([C@@](C)(O)C3CC3)c2=O)cc1-n1c(C)cc(OCc2ncc(F)cc2F)c(Cl)c1=O (single isomer, unassigned) [Example 14D, rel-3-chloro-2′-[3-(1-cyclopropyl-1-hydroxyethyl)-2-oxopyridin-1-yl]-4-[(3,5-difluoropyridin-2-yl)methoxy]-5′,6-dimethyl-[1,4′-bipyridin]-2-one] | > 316 | > 1 | 
Cc1cnc(-n2cncc(C(C)(C)O)c2=O)cc1-n1c(C)cc(OCc2ncc(F)cc2F)c(Cl)c1=O (single isomer, unassigned) [Example 10B, rel-3-chloro-4-[(3,5-difluoropyridin-2-yl)methoxy]-2′-[5-(2-hydroxypropan-2-yl)-6-oxopyrimidin-1-yl]-5′,6-dimethyl-[1,4′-bipyridin]-2-one] | > 316 | > 1 | 
Cc1cnc(-n2cccc(C3(O)CCC3)c2=O)cc1-n1c(C)cc(OCc2ncc(F)cc2F)c(Cl)c1=O (single isomer, unassigned) [Example 12B, rel-3-chloro-4-[(3,5-difluoropyridin-2-yl)methoxy]-2′-[3-(1-hydroxycyclobutyl)-2-oxopyridin-1-yl]-5′,6-dimethyl-[1,4′-bipyridin]-2-one] | > 316 | > 1 | 
Cc1cnc(-n2cccc(C3CCOCC3)c2=O)cc1-n1c(C)cc(OCc2ncc(F)cc2F)c(Cl)c1=O (single isomer, unassigned) [Example 8A, rel-3-chloro-4-[(3,5-difluoropyridin-2-yl)methoxy]-5′,6-dimethyl-2′-[3-(oxan-4-yl)-2-oxopyridin-1-yl]-[1,4′-bipyridin]-2-one] | 2.51 | 0.000794 | 
COCc1cc(OCc2ncc(F)cc2F)c(Cl)c(=O)n1-c1cc(-n2cccc(C(C)(C)O)c2=O)ncc1C (single isomer, unassigned) [Example 3A, rel-3-chloro-4-[(3,5-difluoropyridin-2-yl)methoxy]-2′-[3-(2-hydroxypropan-2-yl)-2-oxopyridin-1-yl]-6-(methoxymethyl)-5′-methyl-[1,4′-bipyridin]-2-one] | 5.01 | 0.00631 | 
Cc1cnc(-n2cccc(C(C)(C)O)c2=O)cc1-n1c(C)cc(OCc2ncc(F)cc2F)c(Cl)c1=O (single isomer, unassigned) [Example 1B, rel-3-chloro-4-[(3,5-difluoropyridin-2-yl)methoxy]-2′-[3-(2-hydroxypropan-2-yl)-2-oxopyridin-1-yl]-5′,6-dimethyl-[1,4′-bipyridin]-2-one] | > 316 |  | 0.398
Cc1cnc(-n2cc(C(C)(C)O)ccc2=O)cc1-n1c(C)cc(OCc2ncc(F)cc2F)c(Cl)c1=O (single isomer, unassigned) [Example 13A, rel-3-chloro-4-[(3,5-difluoropyridin-2-yl)methoxy]-2′-[5-(2-hydroxypropan-2-yl)-2-oxopyridin-1-yl]-5′,6-dimethyl-[1,4′-bipyridin]-2-one] | > 316 | > 1 | 
Cc1cnc(-n2cccc(C3CCOCC3)c2=O)cc1-n1c(C)cc(OCc2ncc(F)cc2F)c(Cl)c1=O (single isomer, unassigned) [Example 8B, rel-3-chloro-4-[(3,5-difluoropyridin-2-yl)methoxy]-5′,6-dimethyl-2′-[3-(oxan-4-yl)-2-oxopyridin-1-yl]-[1,4′-bipyridin]-2-one] | > 316 | > 1 | 
[2H]C([2H])(Oc1cc(C)n(-c2cc(-n3ccnc(C(C)(C)O)c3=O)ncc2C)c(=O)c1Cl)c1ncc(F)cc1F (single isomer, unassigned) [Example 19B, rel-3-chloro-4-((3,5-difluoropyridin-2-yl)methoxy-d2)-2′-(3-(2-hydroxypropan-2-yl)-2-oxopyrazin-1(2H)-yl)-5′,6-dimethyl-2H-[1,4′-bipyridin]-2-one] | > 316 | 0.794 | 
Cc1cnc(-n2cc(C(C)(C)O)ccc2=O)cc1-n1c(C)cc(OCc2ncc(F)cc2F)c(Cl)c1=O (single isomer, unassigned) [Example 13B, rel-3-chloro-4-[(3,5-difluoropyridin-2-yl)methoxy]-2′-[5-(2-hydroxypropan-2-yl)-2-oxopyridin-1-yl]-5′,6-dimethyl-[1,4′-bipyridin]-2-one] | 15.8 |  | 

Now from value to molecule, other results behind:

IC50 (p38a/PRAK) [µM] | IC50 (p38a/MK2; [1]) [µM] | SMILES | IC50 (p38a/MK2; top dose 10 μM, read-out: p38a/MK2 (10 μM) Enzyme pIC50 (converted)) [µM]
> 316 | > 1 | Cc1cnc(-n2cccc(C(C)(C)O)c2=O)cc1-n1c(C)cc(OCc2ncc(Cl)cc2F)c(Cl)c1=O (single isomer, unassigned) [Example 4B, rel-3-chloro-4-[(5-chloro-3-fluoropyridin-2-yl)methoxy]-2′-[3-(2-hydroxypropan-2-yl)-2-oxopyridin-1-yl]-5′,6-dimethyl-[1,4′-bipyridin]-2-one] | 
5.01 | 0.00251 | Cc1cnc(-n2ccnc(C(C)(C)O)c2=O)cc1-n1c(C)cc(OCc2ncc(F)cc2Cl)c(Cl)c1=O (single isomer, unassigned) [Example 24B, rel-3-chloro-4-[(3-chloro-5-fluoropyridin-2-yl)methoxy]-2′-[3-(2-hydroxypropan-2-yl)-2-oxopyrazin-1-yl]-5′,6-dimethyl-[1,4′-bipyridin]-2-one] | 
7.94 | 0.001 | Cc1cnc(-n2cccc(C(C)(C)O)c2=O)cc1-n1c(C)cc(OCc2ncc(F)cc2Cl)c(Cl)c1=O (single isomer, unassigned) [Example 7A, rel-3-chloro-4-[(3-chloro-5-fluoropyridin-2-yl)methoxy]-2′-[3-(2-hydroxypropan-2-yl)-2-oxopyridin-1-yl]-5′,6-dimethyl-[1,4′-bipyridin]-2-one] | 
> 316 | > 1 | Cc1cnc(-n2ccnc(C(C)(C)O)c2=O)cc1-n1c(C)cc(OCc2ncc(F)cc2Cl)c(Cl)c1=O (single isomer, unassigned) [Example 24A, rel-3-chloro-4-[(3-chloro-5-fluoropyridin-2-yl)methoxy]-2′-[3-(2-hydroxypropan-2-yl)-2-oxopyrazin-1-yl]-5′,6-dimethyl-[1,4′-bipyridin]-2-one] | 
5.01 | 0.002 | Cc1cnc(-n2cccc(C(C)(C)O)c2=O)cc1-n1c(C)cc(OCc2ncc(Cl)cc2F)c(Cl)c1=O (single isomer, unassigned) [Example 4A, rel-3-chloro-4-[(5-chloro-3-fluoropyridin-2-yl)methoxy]-2′-[3-(2-hydroxypropan-2-yl)-2-oxopyridin-1-yl]-5′,6-dimethyl-[1,4′-bipyridin]-2-one] | 
> 316 | > 1 | Cc1cnc(-n2cccc(C(C)(C)O)c2=O)cc1-n1c(C)cc(OCc2ncc(F)cc2Cl)c(Cl)c1=O (single isomer, unassigned) [Example 7B, rel-3-chloro-4-[(3-chloro-5-fluoropyridin-2-yl)methoxy]-2′-[3-(2-hydroxypropan-2-yl)-2-oxopyridin-1-yl]-5′,6-dimethyl-[1,4′-bipyridin]-2-one] | 
